The values that follow are results of earlier work, collected in patent US5962660A, “Sialyl Lewis X mimetics incorporating fucopeptides” (The Scripps Research Institute, priority 1997, dated 1999).

For data set [1] the following is noted: for lung injury / tissue accumulation of neutrophils: intravenous infusion of up to 200 μg, rats given intravenous cobra venom.
The test system of data set [2] is E-selectin.
For data set [3] the following is noted: because of glycosidase reactions.

“NeuAcα2→3Galβ1→4(Fucα1→3)GlcNAcβ1,3Galβ- [pentamer]”: in data set [1], the lung injury result is “dramatically reduced” and the “tissue accumulation of neutrophils” value is “diminished”.
Broadly, the IC50 is the concentration needed to halve the response being measured. Take NeuAcα2→3Galβ1→4(Fucα1→3)GlcNAc [SLe^x]: the effective intravenous concentration entry in data set [1] (calculated from the 200 μg used) is recorded as “less than 1 μM”. For the same substance, in data set [1], the lung injury entry is recorded as “dramatically reduced” and the “tissue accumulation of neutrophils” value is listed as “diminished”. Moreover, the IC50 in data set [1] (rats, read-out: IC50 value in vivo for protecting against lung injury) is around 1000 nM. Besides, in data set [2], the “affinity for E-selectin in vitro” value is “relatively weak”. The “stability in the blood stream” value in data set [3] is “unstable”.
